Measured values published in patent US6727387B2, “Quaternary ammonium salts having a tertiary alkyl group” (Rohm and Haas Company, priority 2001, dated 2004).

How the values were obtained:
[1] = system: Staphylococcus aureus 6538; assay: High resolution minimum inhibitory concentration (HRMIC) test, Gram-positive bacterium; assay type: cell-based; conditions: for Activity against Gram-positive test organism (in words): HRMIC test; for MIC: M9GY, 10^6 CFU/ml, 30° C., 24 hours, read-out: MIC (ppm) Average, Gram-positive
Method: (§1) The five alkylation products from Route B, as described in Table 1, were tested for their ability to inhibit the growth of a Gram-positive bacterium, Staphylococcus aureus 6538 and a Gram-negative bacterium, Pseudomonas aeruginosa 13388 in a high resolution minimum inhibitory concentration (HRMIC) test. Two of the compounds showing biological activity were also tested for activity against sulfate-reducing bacteria (SRB). HR MIC Test Method: Varying amounts of test compound dissolved in DMSO were added to […] in a 96-well microtiter plate. Ten-fold serial dilutions were performed on a Biomek 2000 Workstation to obtain a range of closely spaced concentrations of biocide as illustrated in Table 2. A cell suspension of either Pseudomonas aeruginosa 13388 or Staphylococcus aureus 6538, adjusted to provide 10^6 CFU/ml in each well, was added to each microtiter plate. Kathon® WT biocide and Hyamine® 3500 biocide (dimethyl benzyl ammonium chloride) were included in the test for comparison. The microtiter plates were incubated at 30° C. for 24 hours and were then checked for the presence or absence of microbial growth in each well. […] Each compound was evaluated in duplicate on three separate days. [table]

[2] = system: Pseudomonas aeruginosa 13388; assay: High resolution minimum inhibitory concentration (HRMIC) test, Gram-negative bacterium; assay type: cell-based; conditions: for Activity against Gram-negative test organism (in words): HRMIC test; for MIC: M9GY, 10^6 CFU/ml, 30° C., 24 hours, read-out: MIC (ppm) Average, Gram-negative
Method: as §1

MIC [1] [µg/mL]	MIC [2] [µg/mL]	SMILES	Activity against Gram-positive test organism (in words) [1]	Activity against Gram-negative test organism (in words) [2]
> 1000	> 1000	CC(C)(C)CC(C)(C)[N+](C)(C)C.[Br-] [TOA Br^−, N,N,N-Trimethyl t-octyl ammonium bromide]	showed no activity	showed no activity
> 1000	> 1000	CC(C)(C)CC(C)(C)[N+](C)(C)C.[I-] [TOA I^−, N,N,N-Trimethyl t-octylammonium iodide]	showed no activity	showed no activity
